In patent publication US8415312B2, “Compound which is a nystatin derivative” (Biosergen AS, priority 2007, dated 2013):
In brackets after ≈: the same amount, converted by molar mass.

Experiments:
Test in all cases: Antifungal susceptibility study (1), broth microdilution MIC
Format in all cases: cell-based
[1] = test system: Candida albicans ATCC 14053; conditions: lowest concentration preventing any visible growth, read at 48 hours, 35° C., RPMI 1640 pH 7.0
Method: (§1) ACROS ORGANICS, New Jersey, USA), pH 7.0, was used in study. […] Then these DMSO solutions were diluted 50-fold (first 10-fold and then 5-fold) in the test medium. […] The solutions were prepared just before using. The organisms used for susceptibility testing were: Candida albicans ATCC 14053, Cryptococcus humicolus ATCC 9949, Aspergillus niger ATCC 16404 and Fusarium oxysporum VKM F-140 (=CMI, IMI 90473). Organisms were stored on potato dextrose agar […] 50% glycerol solution at -70° C. For short-term storage, stock cultures were stored on agar […] 4° C. The cultures of yeasts were sub-cultured onto Sabouraud dextrose (SAB) agar and incubated for 24 hours at 35° C. (Candida albicans) or for 48 hours at 25° C. (Cryptococcus humicolus) to obtain a freshly grown pure culture. The cultures of moulds were sub-cultured onto potato dextrose agar and incubated for 7 days at 35° C. […] (Fusarium oxysporum) to ensure maximum sporulation. […] Inoculum quantitation was performed by plating dilution of the inoculum on Sabouraud dextrose agar to determine the viable number of CFU per milliliter. Sterile 96-well flat-bottomed microtitration plates were used for testing. 100 μl of diluted inocula were dispensed into each microdilution well containing 100 μl of the double dilutions of compounds. Drug-free and yeast/mould-free controls were included. Microdilution trays were incubated at 35° C. (Candida albicans and moulds) or 25° C. (Cryptococcus humicolus) without agitation and observed for the presence or absence of visible growth. […] Minimal inhibitory concentrations (MICs) were read at 48 hours.

[2] = test system: Cryptococcus humicolus ATCC 9949; conditions: lowest concentration preventing any visible growth, read at 48 hours, 25° C., RPMI 1640 pH 7.0
Method: as §1

[3] = test system: Aspergillus niger ATCC 16404; conditions: lowest concentration preventing any visible growth, read at 48 hours, 35° C., RPMI 1640 pH 7.0
Method: (§2) ACROS ORGANICS, New Jersey, USA), pH 7.0, was used in study. […] Then these DMSO solutions were diluted 50-fold (first 10-fold and then 5-fold) in the test medium. […] The solutions were prepared just before using. The organisms used for susceptibility testing were: Candida albicans ATCC 14053, Cryptococcus humicolus ATCC 9949, Aspergillus niger ATCC 16404 and Fusarium oxysporum VKM F-140 (=CMI, IMI 90473). Organisms were stored on potato dextrose agar […] 50% glycerol solution at -70° C. For short-term storage, stock cultures were stored on agar […] 4° C. The cultures of yeasts were sub-cultured onto Sabouraud dextrose (SAB) agar and incubated for 24 hours at 35° C. (Candida albicans) or for 48 hours at 25° C. (Cryptococcus humicolus) to obtain a freshly grown pure culture. The cultures of moulds were sub-cultured onto potato dextrose agar and incubated for 7 days at 35° C. […] (Fusarium oxysporum) to ensure maximum sporulation. […] Finally, the suspensions were vortexed for 15 s to break up clumps of cells and then filtered through four layers of sterile gauze. The densities of conidial spore suspensions was measured at 530 nm and adjusted to 0.09-0.11 for Aspergillus niger and 0.15-0.17 for Fusarium oxysporum. These suspensions were diluted 1:50 with the standard medium. […] Inoculum quantitation was performed by plating dilution of the inoculum on Sabouraud dextrose agar to determine the viable number of CFU per milliliter. Sterile 96-well flat-bottomed microtitration plates were used for testing. 100 μl of diluted inocula were dispensed into each microdilution well containing 100 μl of the double dilutions of compounds. Drug-free and yeast/mould-free controls were included. Microdilution trays were incubated at 35° C. (Candida albicans and moulds) or 25° C. (Cryptococcus humicolus) without agitation and observed for the presence or absence of visible growth. […] Minimal inhibitory concentrations (MICs) were read at 48 hours.

[4] = test system: Fusarium oxysporum VKM F-140; conditions: lowest concentration preventing any visible growth, read at 48 hours, 35° C., RPMI 1640 pH 7.0
Method: as §2

SMILES	MIC Candida albicans ATCC 14053 [1]	MIC Cryptococcus humicolus ATCC 9949 [2]	MIC Aspergillus niger ATCC 16404 [3]	MIC Fusarium oxysporum VKM F-140 [4]
CC1C=CC=CC=CC=CC=CC=CC=CC(OC2OC(C)C(O)C(NCCCN)C2O)CC2OC(O)(CC(O)C(O)CCC(O)CC(O)CC(O)CC(=O)OC(C)C(C)C1O)CC(O)C2C(=O)O (stereo not shown) [Compound 21]	2 µg/mL (≈ 2.04 µM)	4 µg/mL (≈ 4.08 µM)	4 µg/mL (≈ 4.08 µM)	4 µg/mL (≈ 4.08 µM)
CC1O[C@@H](O[C@H]2/C=C/C=C/C=C/C=C/C=C/C=C/C=C/[C@H](C)[C@@H](O)[C@@H](C)[C@H](C)OC(=O)C[C@H](O)C[C@H](O)C[C@H](O)CC[C@@H](O)[C@H](O)C[C@]3(O)C[C@H](O)[C@@H](C)[C@H](C2)O3)[C@H](O)C(N)[C@@H]1O.Cl (stereo partly shown) [Compound 53, Compound 1 Hydrochloride]	2 µg/mL	2 µg/mL	4 µg/mL	4 µg/mL
CC1O[C@@H](O[C@H]2/C=C/C=C/C=C/C=C/C=C/C=C/C=C/[C@H](C)[C@@H](O)[C@@H](C)[C@H](C)OC(=O)C[C@H](O)C[C@H](O)C[C@H](O)CC[C@@H](O)[C@H](O)C[C@]3(O)C[C@H](O)[C@@H](C(=O)NCCN(C)C)[C@H](C2)O3)[C@H](O)C(NC(=O)c2ccc(CN)cc2)[C@@H]1O (stereo partly shown) [Compound 46]	2 µg/mL (≈ 1.77 µM)	2 µg/mL (≈ 1.77 µM)	2 µg/mL (≈ 1.77 µM)	4 µg/mL (≈ 3.55 µM)
CC1O[C@@H](O[C@H]2/C=C/C=C/C=C/C=C/C=C/C=C/C=C/[C@H](C)[C@@H](O)[C@@H](C)[C@H](C)OC(=O)C[C@H](O)C[C@H](O)C[C@H](O)CC[C@@H](O)[C@H](O)C[C@]3(O)C[C@H](O)[C@@H](C(=O)O)[C@H](C2)O3)[C@H](O)C(NC(=O)c2ccc(CN)cc2)[C@@H]1O (stereo partly shown) [Compound 47, N-(4-Aminomethylbenzoyl) S44HP]	2 µg/mL (≈ 1.89 µM)	2 µg/mL (≈ 1.89 µM)	4 µg/mL (≈ 3.78 µM)	16 µg/mL (≈ 15.1 µM)
CC1O[C@@H](O[C@H]2/C=C/C=C/C=C/C=C/C=C/C=C/C=C/[C@H](C)[C@@H](O)[C@@H](C)[C@H](C)OC(=O)C[C@H](O)C[C@H](O)C[C@H](O)CC[C@@H](O)[C@H](O)C[C@]3(O)C[C@H](O)[C@@H](C(=O)NCCN(C)C)[C@H](C2)O3)[C@H](O)C(NCC2(O)OC[C@@H](O)[C@H](O)[C@@H]2O)[C@@H]1O (stereo partly shown) [Compound 42, N-tagatopyronosyl S44HP DMAE amide]	0.5 µg/mL (≈ 0.432 µM)	1 µg/mL (≈ 0.865 µM)	1 µg/mL (≈ 0.865 µM)	2 µg/mL (≈ 1.73 µM)
CC1C=CC=CC=CC=CC=CC=CC=CC(OC2OC(C)C(O)C(N(Cc3ccc(N(C)C)cc3)Cc3ccc(N(C)C)cc3)C2O)CC2OC(O)(CC(O)C(O)CCC(O)CC(O)CC(O)CC(=O)OC(C)C(C)C1O)CC(O)C2C(=O)O (stereo not shown) [Compound 20]	2 µg/mL (≈ 1.68 µM)	2 µg/mL (≈ 1.68 µM)	4 µg/mL (≈ 3.36 µM)	>16 µg/mL
CC1O[C@@H](O[C@H]2/C=C/C=C/C=C/C=C/C=C/C=C/C=C/[C@H](C)[C@@H](O)[C@@H](C)[C@H](C)OC(=O)C[C@H](O)C[C@H](O)C[C@H](O)CC[C@@H](O)[C@H](O)C[C@]3(O)C[C@H](O)[C@@H](C)[C@H](C2)O3)[C@H](O)C(N)[C@@H]1O.N[C@H](CCC(=O)O)C(=O)O (stereo partly shown) [Compound 54]	2 µg/mL	2 µg/mL	2 µg/mL	2 µg/mL
CC1C=CC=CC=CC=CC=CC=CC=CC(OC2OC(C)C(O)C(NCC3(O)OCC(O)C(O)C3O)C2O)CC2OC(O)(CC(O)C(O)CCC(O)CC(O)CC(O)CC(=O)OC(C)C(C)C1O)CC(O)C2C(=O)NCCCN(C)C (stereo not shown) [Compound 30]	1 µg/mL (≈ 0.854 µM)	1 µg/mL (≈ 0.854 µM)	1 µg/mL (≈ 0.854 µM)	4 µg/mL (≈ 3.42 µM)
CC1C=CC=CC=CC=CC=CC=CC=CC(OC2OC(C)C(O)C(NC(=O)c3ccc(CN)cc3)C2O)CC2OC(O)(CC(O)C(O)CCC(O)CC(O)CC(O)CC(=O)OC(C)C(C)C1O)CC(O)C2C(=O)NCCCN(C)C (stereo not shown) [Compound 35]	2 µg/mL (≈ 1.75 µM)	2 µg/mL (≈ 1.75 µM)	4 µg/mL (≈ 3.5 µM)	4 µg/mL (≈ 3.5 µM)
CC1C=CC=CC=CC=CC=CC=CC=CC(OC2OC(C)C(O)C(NCC3(O)OCC(O)C(O)C3O)C2O)CC2OC(O)(CC(O)C(O)CCC(O)CC(O)CC(O)CC(=O)OC(C)C(C)C1O)CC(O)C2C(=O)NCCCN(C)C (stereo not shown) [Compound 31, N-tagatopyronosyl S44HP DMAP amide]	1 µg/mL (≈ 0.854 µM)	2 µg/mL (≈ 1.71 µM)	2 µg/mL (≈ 1.71 µM)	4 µg/mL (≈ 3.42 µM)
CC1O[C@@H](O[C@H]2/C=C/C=C/C=C/C=C/C=C/C=C/C=C/[C@H](C)[C@@H](O)[C@@H](C)[C@H](C)OC(=O)C[C@H](O)C[C@H](O)C[C@H](O)CC[C@@H](O)[C@H](O)C[C@]3(O)C[C@H](O)[C@@H](C(=O)NCCN(C)C)[C@H](C2)O3)[C@H](O)C(NCc2ccc(N(C)C)cc2)[C@@H]1O (stereo partly shown) [Compound 43]	1 µg/mL (≈ 0.887 µM)	1 µg/mL (≈ 0.887 µM)	1 µg/mL (≈ 0.887 µM)	4 µg/mL (≈ 3.55 µM)
CC1C=CC=CC=CC=CC=CC=CC=CC(OC2OC(C)C(O)C(NC(=O)C(N)CCCCN)C2O)CC2OC(O)(CC(O)C(O)CCC(O)CC(O)CC(O)CC(=O)OC(C)C(C)C1O)CC(O)C2C(=O)NCCCN(C)C [Compound 33, N-L-lysyl S44HP DMAP-Amide]	1 µg/mL (≈ 0.88 µM)	1 µg/mL (≈ 0.88 µM)	1 µg/mL (≈ 0.88 µM)	2 µg/mL (≈ 1.76 µM)
CC1C=CC=CC=CC=CC=CC=CC=CC(OC2OC(C)C(O)C(NC(=O)c3ccc(CN)cc3)C2O)CC2OC(O)(CC(O)C(O)CCC(O)CC(O)CC(O)CC(=O)OC(C)C(C)C1O)CC(O)C2C(=O)NCCCO (stereo not shown) [Compound 40]	2 µg/mL (≈ 1.79 µM)	2 µg/mL (≈ 1.79 µM)	4 µg/mL (≈ 3.59 µM)	16 µg/mL (≈ 14.4 µM)
